Source: ChEMBL document CHEMBL3217648, “Glycosylated porphyrin derivatives and their photodynamic activity in cancer cells” (Medchemcomm, 2011)
Activity calls are given as the source filed them. The calls are words filed in the database; no cut-off is given here.

Assays:
HCT-116 = assay: Phototoxicity against human HCT116 cells at 1 uM after 24 hrs followed by halogen light irradiation by MTS assay; type: functional, cell-based
HeLa [1] = assay: Phototoxicity against human HeLa cells at 1 uM after 24 hrs followed by halogen light irradiation by MTS assay; type: functional, cell-based
HeLa [2] = assay: Cellular uptake in human HeLa cells at 1 uM after 24 hrs by fluorescence microscopy; type: ADME, cell-based
[3] = Dark toxicity against human HCT116 cells assessed as cell viability at 1 uM after 24 hrs by MTS assay; type: cell-based, HCT-116; settings: read-out: Survival
[4] = Dark toxicity against human HeLa cells assessed as cell viability at 1 uM after 24 hrs by MTS assay; type: cell-based; settings: read-out: Survival

With `CC1(C)O[C@H]2[C@@H](O1)[C@@H](C=O)O[C@@H]1OC(C)(C)O[C@@H]12` the Activity (HCT-116) was “inactive” and the Activity (HeLa [1]) was “inactive”.

In the case of `CC1(C)O[C@H]2[C@@H](O1)[C@@H](c1c3nc(c(-c4ccc(OC(F)(F)F)cc4)c4ccc([nH]4)c([C@H]4O[C@@H]5OC(C)(C)O[C@@H]5[C@H]5OC(C)(C)O[C@H]54)c4nc(c(-c5ccc(OC(F)(F)F)cc5)c5ccc1[nH]5)C=C4)C=C3)O[C@@H]1OC(C)(C)O[C@@H]12`, the Activity (HCT-116) is reported as “inactive” and the Activity (HeLa [1]) is reported as “inactive”.

For `CC1(C)O[C@H]2[C@@H](O1)[C@@H](c1c3nc(c(-c4c(F)c(F)c(F)c(F)c4F)c4ccc([nH]4)c([C@H]4O[C@@H]5OC(C)(C)O[C@@H]5[C@H]5OC(C)(C)O[C@H]54)c4nc(c(-c5c(F)c(F)c(F)c(F)c5F)c5ccc1[nH]5)C=C4)C=C3)O[C@@H]1OC(C)(C)O[C@@H]12`, the Activity (HCT-116) was “inactive” and the Activity (HeLa [1]) was “inactive”.

For `COc1cccc(OC)c1-c1c2nc(c([C@H]3O[C@@H]4OC(C)(C)O[C@@H]4[C@H]4OC(C)(C)O[C@H]43)c3ccc([nH]3)c(-c3c(OC)cccc3OC)c3nc(c([C@H]4O[C@@H]5OC(C)(C)O[C@@H]5[C@H]5OC(C)(C)O[C@H]54)c4ccc1[nH]4)C=C3)C=C2`, the Activity (HCT-116) was “inactive” and the Activity (HeLa [1]) was “inactive”.

In the case of `COc1ccc(-c2c3nc(c([C@H]4O[C@@H]5OC(C)(C)O[C@@H]5[C@H]5OC(C)(C)O[C@H]54)c4ccc([nH]4)c(-c4ccc(OC)cc4)c4nc(c([C@H]5O[C@@H]6OC(C)(C)O[C@@H]6[C@H]6OC(C)(C)O[C@H]65)c5ccc2[nH]5)C=C4)C=C3)cc1`, the Activity (HCT-116) is reported as “Active”, the Drug uptake (HeLa [2]) is reported as “Not Active” and the viability at 24 h, 1 µM [3] is reported as > 90%. The Activity (HeLa [1]) was “Active” and the viability at 24 h, 1 µM [4] was > 90%.

With `CC1(C)O[C@H]2[C@@H](O1)[C@@H](c1c3nc(c(-c4ccc([N+](=O)[O-])cc4)c4ccc([nH]4)c([C@H]4O[C@@H]5OC(C)(C)O[C@@H]5[C@H]5OC(C)(C)O[C@H]54)c4nc(c(-c5ccc([N+](=O)[O-])cc5)c5ccc1[nH]5)C=C4)C=C3)O[C@@H]1OC(C)(C)O[C@@H]12` the Activity (HCT-116) was “inactive” and the Activity (HeLa [1]) was “inactive”.

With `CC1(C)O[C@H]2[C@@H](O1)[C@@H](c1c3nc(c(-c4ccsc4)c4ccc([nH]4)c([C@H]4O[C@@H]5OC(C)(C)O[C@@H]5[C@H]5OC(C)(C)O[C@H]54)c4nc(c(-c5ccsc5)c5ccc1[nH]5)C=C4)C=C3)O[C@@H]1OC(C)(C)O[C@@H]12` the Activity (HCT-116) was “Active”, the Drug uptake (HeLa [2]) was “Active” and the viability at 24 h, 1 µM [3] was > 90%. For the same compound, the Activity (HeLa [1]) was “Active” and the viability at 24 h, 1 µM [4] was > 90%.

In the case of `CSc1ccc(-c2c3nc(c([C@H]4O[C@@H]5OC(C)(C)O[C@@H]5[C@H]5OC(C)(C)O[C@H]54)c4ccc([nH]4)c(-c4ccc(SC)cc4)c4nc(c([C@H]5O[C@@H]6OC(C)(C)O[C@@H]6[C@H]6OC(C)(C)O[C@H]65)c5ccc2[nH]5)C=C4)C=C3)cc1`, the Activity (HCT-116) is reported as “Active”, the Drug uptake (HeLa [2]) is reported as “Not Active” and the viability at 24 h, 1 µM [3] is reported as > 90%. For the same compound, the Activity (HeLa [1]) was “Active” and the viability at 24 h, 1 µM [4] was > 90%.

For `CC1(C)O[C@H]2[C@@H](O1)[C@@H](c1c3nc(c(-c4ccc(Cl)cc4)c4ccc([nH]4)c([C@H]4O[C@@H]5OC(C)(C)O[C@@H]5[C@H]5OC(C)(C)O[C@H]54)c4nc(c(-c5ccc(Cl)cc5)c5ccc1[nH]5)C=C4)C=C3)O[C@@H]1OC(C)(C)O[C@@H]12`, the Activity (HCT-116) was “inactive” and the Activity (HeLa [1]) was “inactive”.

In the case of `CC1(C)O[C@H]2[C@@H](O1)[C@@H](c1c3nc(c(-c4ccccc4)c4ccc([nH]4)c([C@H]4O[C@@H]5OC(C)(C)O[C@@H]5[C@H]5OC(C)(C)O[C@H]54)c4nc(c(-c5ccccc5)c5ccc1[nH]5)C=C4)C=C3)O[C@@H]1OC(C)(C)O[C@@H]12`, the Activity (HCT-116) is reported as “inactive” and the Activity (HeLa [1]) is reported as “inactive”.
